Counter-ions that a name gives are not always drawn.
Assays:
[1] = test system: conditioned avoidance response; experiment: conditioned avoidance (shelf-jump response) test; format: in vivo, male CD rats; conditions: rats; for Active at: i.p.
Experimental: A test designed to determine the potential antipsychotic activity of the compounds of the invention is the conditioned avoidance (shelf-jump response) test.
This test is carried out as follows:
Male CD rats (Charles River) maintained at approximately 400-450 gm body weight are used. […] A moveable wall, controlled by a motor, determines whether the rat has access to the shelf at any time during the experiment. The experimental chamber also contains a house light and sonalert. A steel grid floor in the main chamber is wired for presentation of electric shock. Each trial consists of a fifteen-second warning tone (conditioned stimulus), continuing for an additional fifteen seconds accompanied by electric shock (unconditioned stimulus). A response (jumping onto the exposed shelf of the upper chamber) occurring during the initial fifteen-second warning tone is considered an avoidance response, while a response occurring during shock delivery is considered an escape response. Trials are presented on a fixed interval schedule of one minute. The session consists of thirty-six trials. Animals are run twice weekly with control sessions always preceding a drug run, and with at least one day intervening. Compounds are administered i.p. or p.o. at appropriate pre-treatment times to a minimum of five rats at each dose level over a range of doses.
The following experimental parameters are recorded by computer: (1) the number of avoidance responses, (2) the number of escape responses, and (3) the number of trials in which no response occurred.
Response counts are summed over all subjects at a given dose. […] This number is expressed as a percentage of the total trials. Control performance is arbitrarily assigned a value of 100% for avoidance responding and the dose calculated to produce a 50% block in avoidance responding (AB50) is obtained from a dose-effect regression line fitted by the method of least squares. Potential antipsychotic compounds suppress avoidance responding and increase escape responding.

[2] = test system: apomorphine-induced stereotyped behavior (in vivo dopamine receptor blocking activity); conditions: i.p., mice; inactivity taken as low potential for extrapyramidal side effects
[3] = biological target: limbic D-2 dopamine receptor (Rattus norvegicus, UniProt P61169); experiment: inhibition of limbic D-2 dopamine receptor binding (3H-spiroperidol); conditions: read-out: Limbic D-2 Binding Inhibition, % inhibition at 1 μM
limbic D-2 dopamine receptor, sequence (P61169 whole entry): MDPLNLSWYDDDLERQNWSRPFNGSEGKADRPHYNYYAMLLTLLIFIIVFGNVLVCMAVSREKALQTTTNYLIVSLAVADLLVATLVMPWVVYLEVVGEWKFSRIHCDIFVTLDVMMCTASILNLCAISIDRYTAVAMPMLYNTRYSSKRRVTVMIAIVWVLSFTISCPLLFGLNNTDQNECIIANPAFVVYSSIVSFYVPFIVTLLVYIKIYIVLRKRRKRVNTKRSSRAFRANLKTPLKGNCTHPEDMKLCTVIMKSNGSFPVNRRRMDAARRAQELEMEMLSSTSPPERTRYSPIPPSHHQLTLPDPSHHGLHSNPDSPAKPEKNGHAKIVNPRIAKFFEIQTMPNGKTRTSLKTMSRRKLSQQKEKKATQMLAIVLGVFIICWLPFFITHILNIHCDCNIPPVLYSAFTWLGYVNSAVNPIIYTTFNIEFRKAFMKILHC
Experimental: This in vitro assay measures the ability of the compounds tested to bind to the dopamine receptor sites.
The assay is carried out as follows:
Several rats are decapitated and the brains are rapidly removed. Limbic brain tissue (nucleus accumbens, septal area, olfactory tubercle) is dissected and homogenized on ice in 9 volumes of buffer (50 mM Tris-HCl, 120 mM NaCl, 5 mM KCl, 1 mM CaCl2, 1 mM MgCl2, 0.1% L-ascorbic acid, 10 μM pargyline HCl, pH 7.1) using a Polytron homogenizer at setting 5 for three 15-sec bursts. The homogenate is then diluted 4-fold with buffer and centrifuged at 30,000×g for 20 min, and the supernatant is discarded. The pellet is resuspended in the same volume of buffer and recentrifuged as before, again discarding the supernatant. This pellet is then resuspended in the same volume of buffer used in the homogenization, and the protein content of this preparation is assayed by the Lowry method. The homogenate is stored frozen at -70° C. until use.
At the end of the incubation, 3 ml of cold 50 mM Tris-HCl, pH 7.7, are added to each tube, and the contents are rapidly vacuum-filtered through Whatman GF/B glass-fiber filters. The filters are then rapidly washed 3 times with 3 ml of the same buffer, placed in scintillation vials, and shaken for 15 min with 10 ml of Hydrofluor (National Diagnostics) scintillation cocktail. The vials are then counted in a Packard 460CD scintillation counter.
Specific binding is defined as total binding less binding in the presence of 1 μM (+)butaclamol. Binding in the presence of various concentrations of test drug is expressed as a per cent of specific binding when no drug is present.

| SMILES | ED50 ([1]; Rattus norvegicus, ip, read-out: AB50 (50% block in avoidance responding)) [mg/kg] | activity in apomorphine-induced stereotyped behavior assay [2] | Active at [1] [mg/kg] | inhibition at 1 µM [3] [%] |
| --- | --- | --- | --- | --- |
| O=C1CC2(CCCC2)CC(=O)N1CCCCN1CCN(c2ncccn2)CC1 [Buspirone, 8-[4-[4-(2-pyrimidinyl)-1-piperazinyl]butyl]-8-azaspiro[4.5]decane-7,9-dione, reference compound] | 9.44 | inactive | – | – |
| Cl.O=C1C2C3CCC(O3)C2S(=O)(=O)N1CCCCc1ccncc1 (stereo not drawn) [Example 1, Hexahydro-2-[4-(4-pyridinyl)butyl]-4,7-epoxy-1,2-benzisothiazol-3(2H)-one 1,1-dioxide, hydrochloride] | – | – | 40 | 3 |
| O=C1C2C3CCC(O3)C2S(=O)(=O)N1CCCCC1CCN(c2ncccn2)CC1 (stereo not drawn) [Example 2, Hexahydro-2-[4-[1-(2-pyrimidinyl)-4-piperidinyl]butyl]-4,7-epoxy-1,2-benzisothiazol-3(2H)-one 1,1-dioxide, hydrochloride, monohydrate] | – | – | – | 6 |
| Cl.O=C1C2C3C=CC(C3)C2S(=O)(=O)N1CCCCc1ccncc1 (stereo not drawn) [Example 3, 3a,4,7,7a-Tetrahydro-2-[4-(4-pyridinyl)butyl]-4,7-methano-1,2-benzisothiazol-3(2H)-one 1,1-dioxide, hydrochloride] | – | – | 40 | 1 |
| O=C1C2C3CCC(O3)C2S(=O)(=O)N1CCCCC1CCN(c2cncc(Cl)n2)CC1 (stereo not drawn) [Example 4, Hexahydro-2-[4-[1-(6-chloro-2-pyrazinyl)-4-piperidinyl]butyl]-4,7-epoxy-1,2-benzisothiazol-3(2H)-one 1,1-dioxide, hydrochloride, hydrate] | – | – | – | 7 |
| CC1=C(C)CC2C(C1)C(=O)N(CCCCc1ccncc1)S2(=O)=O.Cl (stereo not drawn) [Example 5, 3a,4,7,7a-Tetrahydro-5,6-dimethyl-2-[4-(4-pyridinyl)butyl]-1,2-benzisothiazol-3(2H)-one 1,1-dioxide, hydrochloride] | – | – | 40 | 56 |
| O=C1C2C3CCC(O3)C2S(=O)(=O)N1CCCCC1CCN(c2cnccn2)CC1 (stereo not drawn) [Example 6, Hexahydro-2-[4-[1-(2-pyrazinyl)-4-piperidinyl]butyl]-4,7-epoxy-1,2-benzisothiazol-3(2H)-one 1,1-dioxide, hydrochloride, hemihydrate] | – | – | – | 6 |
| O=c1c2ccccc2[s+]([O-])n1CCCCc1ccncc1 (stereo not drawn) [Example 7, 2-[4-(4-Pyridinyl)butyl]-1,2-benzisothiazol-3(2H)-one 1-oxide, hydrochloride] | – | – | – | 14 |

Reference: patent US4942234A, “Isothiazolone 1,1-dioxide derivatives with psychotropic activity” (American Home Products Corporation, priority 1989, dated 1990)
